Data as given in patent US11000568B2, “Means and methods for treating copper-related diseases” (HELMHOLTZ ZENTRUM MÜNCHEN—DEUTSCHES FORSCHUNGSZENTRUM FÜR …, priority 2015, dated 2021).
“Also recorded” adds a separate entry of the source. Read-outs that look alike come from different tables or passages of the source. Numbered stars: 1 amine (or outer) side, 2 acyl side, 3 side chain; on linkers, the order of the positions; unused ones are H or OH. Bridge positions count the residues as written; N and C are the ends. Square brackets hold non-standard residues; d marks the D form. Peptide text beside a SMILES is read from it. * marks the point of attachment. X2 = O=C1OC(C2CCCN2[*:1])=NC1C(=S)NC(CO)C(=O)[*:2]; X1 = CC(C)CC(=O)C1=NC(C(=S)NCC(=O)*)C(=O)O1

Columns and labels:
LPP−/− rats [1] = assay: Repetitive MB treatment cycles in LPP−/− rats; format: in vivo, rat
Text: Due to the efficiency of the short-term MB treatment, we did a first test aiming at replacing daily chelation therapy by a regimen consisting of repetitive treatment cycles interrupted by longer observation cycles (FIG. 14). Five LPP−/− rats as well as five age- and sex-matched LPP+/− controls were included. One pair of rats was sacrificed at experimental days 1, 8, 29, 36 and 85, respectively. […] The four remaining LPP−/− rats were subjected to the first treatment cycle consisting of three daily MB injections (i.p.) for five days. […] Upon the second treatment cycle copper loads decreased again, but now down to 25% of the starting values, resulting in an unprecedented low copper load in LPP−/− mitochondria (day 36, pair 4). […] At experimental day 85, liver and mitochondrial copper loads had risen back to values before beginning of the treatment (day 1), associated with an impaired mitochondrial function (65% ATP production capacity) in comparison to its LPP+/− control (pair 5).

[2] = MB in serum after i.p. injection; format: in vivo, rat
Method: LPP rats were treated with MB either by daily i.p. injections for 3 or 5 consecutive days, or twice daily i.p. injections for 8 consecutive days at a dose of 150 mg/kg bw or 4 days via the drinking water with D-PA at a dose of 100 mg/kg bw/d or TETA at 480 mg/kg bw/d, respectively (Togashi et al., Hepatology 15, 82-87 (1992)). Based on a mean copper content of 250 μg/g w.w. in Atp7b−/− rat livers at the age of treatment start (Zischka et al., log. cit.), a LPP−/− rat liver of 8 g w.w. contains around 31.5 μmol copper. Single MB doses were chosen equimolar to this copper amount. […] Assuming 40 ml water intake per day for a rat weighing 250 g this translates to a dose of 480 mg/kg bw/d. With respect to the mean liver copper content in LPP−/− rats aged 85 days, the molar ratios of the chelators applied was MB 1:D-PA 4.3:TETA 17.4, respectively. […]
Competitive ELISA. […] After 10 min, the plates were washed, bound antibodies against MB were detected with HRP conjugated mAbs against the rat IgG isotypes and HRP was visualized with TMB. MAbs that recognized free MB (no signal when pre-incubated with MB, positive signal in the buffer control) were further analyzed in a serial dilution of MB (1000 ng/ml to 2 ng/ml). […]

LPP−/− rats [3] = assay: Short-term in vivo treatment of LPP−/− rats; set-up: species or system rat
Method: LPP rats were treated with MB either by daily i.p. injections for 3 or 5 consecutive days, or twice daily i.p. injections for 8 consecutive days at a dose of 150 mg/kg bw or 4 days via the drinking water with D-PA at a dose of 100 mg/kg bw/d or TETA at 480 mg/kg bw/d, respectively (Togashi et al., Hepatology 15, 82-87 (1992)). Based on a mean copper content of 250 μg/g w.w. in Atp7b−/− rat livers at the age of treatment start (Zischka et al., log. cit.), a LPP−/− rat liver of 8 g w.w. contains around 31.5 μmol copper. Single MB doses were chosen equimolar to this copper amount. […] Assuming 40 ml water intake per day for a rat weighing 250 g this translates to a dose of 480 mg/kg bw/d. With respect to the mean liver copper content in LPP−/− rats aged 85 days, the molar ratios of the chelators applied was MB 1:D-PA 4.3:TETA 17.4, respectively. For the intravenous MB application (150 mg/kg bw), catheters connected to a PinPort™ (Instech Laboratories, Inc., USA) were inserted in the femoral vein of the rat, fixed with non-absorbable sutures and subcutaneously tunneled and exteriorized through a skin incision made between the shoulders.
Formalin-fixed, paraffin-embedded liver samples were cut into 4 μm-thick sections and either stained with hematoxylin and eosin for standard analyses or with Masson trichrome for analysis of fibrotic tissue. AST activity and bilirubin concentration in animal plasma or serum were measured with a Reflotron system (Roche).
Copper in liver homogenates, cell lysates and mitochondrial preparations were analyzed by ICP-OES (Ciros Vision, SPECTRO Analytical Instruments GmbH) after wet ashing of samples with 65% nitric acid (Zischka et al., log. cit.).
The efficiency of a short-term MB treatment schedule was assessed in LPP−/− rats at the age of liver disease onset (85-90 days). Animals received MB (i.p.) either for 3 or 5 days or the clinically used copper chelators D-PA or TETA, which were orally administered for 4-days.

[4] = day 36, after second treatment cycle
[5] = MB i.p. 3 or 5 days, D-PA or TETA 4 days
[6] = i.v. MB daily, five consecutive days

## CSCCC(NC(=O)C1CSSCC(NC(=O)C(CO)NC(=O)CNC(=S)C2N=C(C(=O)CC(C)C)OC2=O)C(=O)NC(Cc2ccc(O)cc2)C(=O)N2CCCC2C2=NC(C(=O)O2)C(=S)NC(CO)C(=O)N1)C(=O)O (stereo not shown) [MB] (X1-SCY[X2]CM-OH; disulfide 2-5; configuration not given here)
LPP−/− rats [1]; [4]
  copper loads relative to starting values: 25%
  decoppering efficiency: 75%
LPP−/− rats [1]; experimental day 85
  ATP production capacity vs LPP+/− control: 65%
LPP−/− rats [1]; experimental day eight, after first cycle (three daily MB i.p. for five days)
  reduction in copper load: 40%
LPP−/− rats [1]; further seven weeks after second cycle
  health status during observation period: stayed healthy
LPP−/− rats [1]; recurrent treatment cycles
  mitochondrial and liver copper load: marked reduction in mitochondrial and liver copper load
  time/age to disease onset vs untreated LPP−/− rats: doubling of the age; also recorded: doubling of time before disease onset
[2]
  time MB detectable in the serum: 30 min
[2]; n=2
  time MB detectable in the serum: half an hour
LPP−/− rats [3]; MB 150 mg/kg bw i.p. daily 3 or 5 days, D-PA 100 mg/kg bw/d or TETA 480 mg/kg bw/d oral 4 days
  histopathological liver damage: strong reduction of histopathological liver damage markers
LPP−/− rats [3]; MB five days, then drug holiday, zinc enriched food (1000 ppm)
  duration of normal serum AST on MB drug holiday: at least two weeks
LPP−/− rats [3]; MB i.p. 3 or 5 days
  body weight: regained body weight
LPP−/− rats [3]; [5]
  mitochondrial copper: significant reduction at the mitochondrial copper level
  serum AST levels: markedly decreased
  whole liver copper: progressive reduction in total liver copper; also recorded: progressive but minor reduction at the whole liver copper level
LPP−/− rats [3]; after 5 days of MB treatment, two onset and one diseased rat
  serum AST: < 200 U/L
LPP−/− rats [3]; electron microscopy, short-term treatment
  severely impaired mitochondria (type 4) in isolates: almost absent
LPP−/− rats [3]; i.v. MB 150 mg/kg bw daily, five consecutive days
  body weight: All animals regained bodyweight
LPP−/− rats [3]; [6]
  AST or bilirubin levels: levels returned to normal
  copper content of whole liver and purified mitochondria: profound reduction in copper content
LPP−/− rats [3]; one week: 5× MB i.p., 5× MB i.v., 16× MB i.p.
  mitochondrial copper load: drastically reduce the mitochondrial copper load
LPP−/− rats [3]; short term MB treatments
  ATP production of isolated mitochondria: reverse this impairment
